Tests used:
[1] = tested on: human Tau stably over-expressed in HeLa cells; test: Tau levels by immunoblotting in HeLa cells overexpressing tau; format: cell-based; conditions: HeLa cells over-expressing tau, 5 μM and 10 μM, 24 hours, immunoblot
Experimental: (§1) Endogenous Tau expressing human neuroblastoma SHSY5Y cells and Hela cells stably overexpressing wild-type human tau were maintained in OptiMEM media supplemented with fetal bovine serum and antibiotic solution as described previously. In six-well plates, cells were treated with control or MB-NPs for 24 hours. Cells were harvested and processed for immunoblotting as described previously.
(§2) To test the functionality of newly generated NPs, two different cell culture-based AD models were utilized. Endogenously tau expressing SHSHY neuronal cells and stably tau overexpressing HeLa cells were treated with 5 μM and 10 μM of MB-NPs, coated MB-NPs, control NPs, vehicle, and/or drug MB-solution for 24 hours. Cells were harvested, and samples were analyzed for tau levels by immunoblotting (FIG. 4).

[2] = tested on: endogenous Tau in human neuroblastoma SHSY-5Y cells; test: Tau levels by immunoblotting in SHSY-5Y cells; format: cell-based; conditions: 5 μM and 10 μM, 24 hours, immunoblot
Experimental: as §1, §2

[3] = tested on: co-culture of rat brain endothelial 4 (RBE4) and C6 astrocytoma cells; test: In vitro blood-brain barrier Transwell permeation assay; format: in vitro ADME; conditions: 10 μM, 0, 3, 6 and 24 hours, UV 600 nm, n=3
Experimental: Transwell Permeable Supports (CORNING) with a 0.4 μm pore size were purchased to investigate the permeability of MB nanoparticles across the blood-brain barrier (BBB) (FIG. 5). Each side was coated with 0.1% rat tail collagen I solution diluted from the purchased 100 mg solution (Collagen I, rat tail, 100 mg, BD BIOSCIENCES), left under the hood to adhere to the support for 1 hour, and washed with […] of 1×PBS after aspiration of the remaining collagen solution. The media used was a 1:1 solution of Ham's F10:MEM media (CELLGRO) supplemented with 10% fetal bovine serum (FBS) (INVITROGEN), 1% penicillin and streptomycin (CELLGRO), 0.4 mL of 1 ng/mL human recombinant diluted basic fibroblast growth factor (bFGF) (BD Biosciences), 5 mL of HEPES buffer (FISHER), and 2 mL of a 200 mM stock of L-glutamine (MEDIATECH). 1.5 mL of media was added surrounding the support, and 0.5 mL was added inside the support. This was left to incubate in the incubator (37° C. and 5% CO2) for 24 hours.
After 24 hours, the media was aspirated from the plates. […]
Subsequently, the media was aspirated and replaced with equal amounts of 1% FBS experimental media. […] The samples were quantified by UV spectrometry in the SYNERGY H4 plate reader (BIOTEK INSTRUMENTS Inc.) at a wavelength of 600 nm. Data was quantified in triplicates and averaged (n=3).

Permeation across simulated BBB (in words) [3]: remained relatively constant
Structure (SMILES): CN(C)c1ccc2nc3ccc(=[N+](C)C)cc-3sc2c1 [MB solution, Methylene blue]
Reduction in tau level (in words) [1]: reduce tau levels slightly higher at 10 μM compared to 5 μM | Reduction in tau level (in words) [2]: reduce tau levels slightly higher at 10 μM compared to 5 μM

From patent US10765755B1, “Preparation and characterization of methylene blue nanoparticles for Alzheimer's disease and other tauopathies” (University of South Florida, priority 2013, dated 2020)
